Data: patent US10618913B2, “Macrocycles as PDE1 inhibitors” (H. Lundbeck A/S, priority 2017, dated 2020)
Read-outs that look alike come from different tables or passages of the source.

Assays:
Type in all cases: biochemical
PDE1A = PDE1A (Homo sapiens (Human), UniProt P54750); assay: PDE1 inhibition assay (SPA, tritium labelled cAMP), PDE1A; details: Table 1, compounds of the invention; 15 nM tritium labelled cAMP
Procedure: (§1) Reactions were initiated by addition of the cyclic nucleotide substrate, and reactions were allowed to proceed for 1 hr at room temperature before being terminated through mixing with 20 μL (0.2 mg) yttrium silicate SPA beads (PerkinElmer).

PDE1B = PDE1B (Homo sapiens (Human), UniProt Q01064); assay: PDE1 inhibition assay (SPA, tritium labelled cAMP), PDE1B
Procedure: as §1

PDE1C = PDE1C (Homo sapiens (Human), UniProt Q14123); assay: PDE1 inhibition assay (SPA, tritium labelled cAMP), PDE1C; details: Table 1, compounds of the invention; 15 nM tritium labelled cAMP
Procedure: Reactions were initiated by addition of the cyclic nucleotide substrate, and reactions were allowed to proceed for 1 hr at room temperature before being terminated through mixing with 20 μL (0.2 mg) yttrium silicate SPA beads (PerkinElmer). The beads were allowed to settle for 1 hr in the dark before the plates were counted in a Wallac 1450 Microbeta counter.

[1] = Table 1, compounds of the invention, 15 nM tritium labelled cAMP, read-out: PDE1B, IC50

Sequence of PDE1C (Q14123 whole entry): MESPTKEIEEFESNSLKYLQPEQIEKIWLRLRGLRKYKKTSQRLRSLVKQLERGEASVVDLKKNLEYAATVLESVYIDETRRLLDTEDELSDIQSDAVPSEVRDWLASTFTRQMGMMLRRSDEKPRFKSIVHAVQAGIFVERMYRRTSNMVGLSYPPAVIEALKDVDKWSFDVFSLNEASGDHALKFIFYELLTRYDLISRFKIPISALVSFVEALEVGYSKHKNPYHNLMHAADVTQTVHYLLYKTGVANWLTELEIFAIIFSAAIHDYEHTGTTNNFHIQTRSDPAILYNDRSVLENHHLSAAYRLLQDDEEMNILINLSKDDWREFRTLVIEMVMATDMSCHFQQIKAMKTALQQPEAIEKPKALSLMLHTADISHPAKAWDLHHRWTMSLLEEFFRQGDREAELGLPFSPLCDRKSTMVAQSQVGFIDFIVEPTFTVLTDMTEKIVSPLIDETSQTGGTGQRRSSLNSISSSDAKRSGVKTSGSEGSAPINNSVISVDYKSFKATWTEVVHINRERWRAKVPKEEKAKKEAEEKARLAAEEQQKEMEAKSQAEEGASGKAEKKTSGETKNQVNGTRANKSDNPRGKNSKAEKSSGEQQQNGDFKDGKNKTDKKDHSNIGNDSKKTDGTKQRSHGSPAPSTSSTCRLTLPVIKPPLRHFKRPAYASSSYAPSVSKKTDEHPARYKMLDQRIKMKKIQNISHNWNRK
Sequence of PDE1A (P54750 whole entry): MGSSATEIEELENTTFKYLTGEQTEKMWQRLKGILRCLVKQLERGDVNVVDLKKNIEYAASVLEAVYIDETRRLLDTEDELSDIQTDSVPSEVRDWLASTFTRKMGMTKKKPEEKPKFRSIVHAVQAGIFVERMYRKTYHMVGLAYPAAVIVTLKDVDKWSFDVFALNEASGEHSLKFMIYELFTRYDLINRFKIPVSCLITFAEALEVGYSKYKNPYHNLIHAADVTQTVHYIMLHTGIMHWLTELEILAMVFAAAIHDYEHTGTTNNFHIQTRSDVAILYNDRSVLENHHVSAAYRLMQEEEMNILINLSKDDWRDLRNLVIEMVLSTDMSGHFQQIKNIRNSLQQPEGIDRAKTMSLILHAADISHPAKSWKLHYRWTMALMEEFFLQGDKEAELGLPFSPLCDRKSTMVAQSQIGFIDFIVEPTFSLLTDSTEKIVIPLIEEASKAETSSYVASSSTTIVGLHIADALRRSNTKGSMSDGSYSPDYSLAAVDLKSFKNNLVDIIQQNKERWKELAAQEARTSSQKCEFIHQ
Sequence of PDE1B (Q01064 whole entry): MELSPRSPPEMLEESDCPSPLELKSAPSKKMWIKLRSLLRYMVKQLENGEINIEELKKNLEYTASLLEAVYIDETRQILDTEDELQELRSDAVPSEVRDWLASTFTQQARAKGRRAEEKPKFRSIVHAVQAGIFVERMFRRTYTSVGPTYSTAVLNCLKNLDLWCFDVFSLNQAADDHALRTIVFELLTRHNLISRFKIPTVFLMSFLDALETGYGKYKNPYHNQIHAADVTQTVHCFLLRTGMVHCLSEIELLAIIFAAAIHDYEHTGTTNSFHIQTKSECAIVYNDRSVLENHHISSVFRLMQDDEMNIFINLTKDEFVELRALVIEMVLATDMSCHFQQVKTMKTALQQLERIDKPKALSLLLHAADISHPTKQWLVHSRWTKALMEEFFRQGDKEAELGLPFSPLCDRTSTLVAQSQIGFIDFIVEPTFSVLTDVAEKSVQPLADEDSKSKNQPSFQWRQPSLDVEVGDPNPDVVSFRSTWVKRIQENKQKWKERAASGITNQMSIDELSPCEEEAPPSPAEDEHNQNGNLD

Structure (SMILES)	IC50 (PDE1A) [µM]	IC50 (PDE1B; [1]) [µM]	IC50 (PDE1C) [µM]	IC50 (PDE1B) [µM]	inhibition at 10 µM (PDE1B; read-out: PDE1B, inhibition at 10 μM) [%]
Cc1nn(C(C)C)c2c3cc(nc12)-c1cccnc1OCCCCCn1nccc1CN3 [Example 5, 2^1-isopropyl-2^3-methyl-2^1H,5^1H-11-oxa-3-aza-2(5,7)-pyrazolo[4,3-b]pyridina-1(3,2)-pyridina-5(5,1)-pyrazolacycloundecaphane]	0.025	0.0047	0.08	–	–
Cc1nn(C)c2c3cc(nc12)-c1cccnc1OCCCCOc1ncccc1CN3 [Example 7, 2^1,2^3-dimethyl-2^1H-6,11-dioxa-3-aza-2(5,7)-pyrazolo[4,3-b]pyridina-1,5(3,2)-dipyridinacycloundecaphane]	0.428	0.095	0.497	–	–
Cc1nn(C(C)C)c2c3cc(nc12)-c1cccnc1OCCCCCOc1ncccc1CN3 [Example 2, 2^1-isopropyl-2^3-methyl-2^1H-6,12-dioxa-3-aza-2(5,7)-pyrazolo[4,3-b]pyridina-1,5(3,2)-dipyridinacyclododecaphane]	0.018	0.0015	0.054	–	–
Cc1nn(C(C)C)c2c3cc(nc12)-c1cccnc1OCCCCn1nccc1CN3 [Example 9, 2^1-isopropyl-2^3-methyl-2^1H,5^1H-10-oxa-3-aza-2(5,7)-pyrazolo[4,3-b]pyridina-1(3,2)-pyridina-5(5,1)-pyrazolacyclodecaphane]	0.053	0.015	0.056	–	–
Cc1nn(C(C)C)c2c3cc(nc12)-c1cccnc1OCCCCOc1cccnc1CN3 [Example 6, 2^1-isopropyl-2^3-methyl-2^1H-6,11-dioxa-3-aza-2(5,7)-pyrazolo[4,3-b]pyridina-1(3,2),5(2,3)-dipyridinacycloundecaphane]	0.00047	0.00027	0.0039	–	–
Cc1nn(C(C)C)c2c3cc(nc12)-c1cccnc1OCCOCCOc1ncccc1CN3 [Example 4, 2^1-isopropyl-2^3-methyl-2^1H-6,9,12-trioxa-3-aza-2(5,7)-pyrazolo[4,3-b]pyridina-1,5(3,2)-dipyridinacyclododecaphane]	0.0026	0.00054	0.016	–	–
Cc1nn(C(C)C)c2c3cc(nc12)-c1cccnc1OCCCCOc1ncccc1CN3 [Example 1, 2^1-isopropyl-2^3-methyl-2^1H-6,11-dioxa-3-aza-2(5,7)-pyrazolo[4,3-b]pyridina-1,5(3,2)-dipyridinacycloundecaphane]	0.012	–	0.02	0.0014	–
Cc1nn(C(C)C)c2c3cc(nc12)-c1cccnc1OCCCCOc1nccnc1CN3 [Example 10, 2^1-isopropyl-2^3-methyl-2^1H-6,11-dioxa-3-aza-2(5,7)-pyrazolo[4,3-b]pyridina-5(2,3)-pyrazina-1(3,2)-pyridinacycloundecaphane]	0.01	–	0.017	–	> 99
Cc1nn(C(C)C)c2c3cc(nc12)-c1cccnc1OCCCOc1ncccc1CN3 [Example 3, 2^1-isopropyl-2^3-methyl-2^1H-6,10-dioxa-3-aza-2(5,7)-pyrazolo[4,3-b]pyridina-1,5(3,2)-dipyridinacyclodecaphane]	0.038	0.0042	0.069	–	–
CCn1nc(C)c2nc3cc(c21)NCc1cccnc1OCCCCOc1ncccc1-3 [Example 8, 2^1-ethyl-2^3-methyl-2^1H-6,11-dioxa-3-aza-2(5,7)-pyrazolo[4,3-b]pyridina-1,5(3,2)-dipyridinacycloundecaphane]	0.256	0.036	0.412	–	–
